Reference: US20260297095A1, “NOVEL PYRROLOTRIAZINE DERIVATIVE AND USE THEREOF” (Pelemed Co., Ltd., priority 2024, published 2026)

Key:
[1] = biological target: YES1 kinase (Homo sapiens, UniProt P07947); assay: YES1 kinase inhibition, ADP Glo assay (Promega); assay type: biochemical; settings: for inhibition at 0.001 µM: read-out: YES1 enzyme, % inhibition, 1 nM; for inhibition at 0.01 µM: compound 10 nM, read-out: YES1 enzyme, % inhibition, 10 nM; for IC50: class symbols, read-out: YES1 enzyme, IC50; for inhibition at 0.1 µM: compound 100 nM, read-out: YES1 enzyme, % inhibition, 100 nM
In short: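 YES1 kinase was preincubated 10 min with compound in Mn2+/DTT-containing kinase buffer, then reacted 40 min at room temperature with ATP/substrate; ADP was detected by ADP-Glo luminescence. Activity, background-subtracted and normalised to negative control, is given as % inhibition at 1, 10 and 100 nM, plus IC50.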

[2] = test system: KYSE-70 esophageal cancer cell line; assay: Cell growth inhibition of KYSE-70 (Sulforhodamine B); assay type: cell-based; settings: Homo sapiens; KYSE-70, 72 hours; read-out: KYSE70 GI50
In short: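 KYSE-70 cells (YES1-amplified) in RPMI-1640 with 10% FBS were seeded 24 h before treatment with compound at 0.0046–10 µM final. After 72 h, cells were TCA-fixed and stained with sulforhodamine B, with absorbance read at 510 nm. GI50 was derived with a time-zero plate set to 0% and the vehicle control to 100%, in duplicate tests.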

YES1 kinase, sequence (P07947 whole entry): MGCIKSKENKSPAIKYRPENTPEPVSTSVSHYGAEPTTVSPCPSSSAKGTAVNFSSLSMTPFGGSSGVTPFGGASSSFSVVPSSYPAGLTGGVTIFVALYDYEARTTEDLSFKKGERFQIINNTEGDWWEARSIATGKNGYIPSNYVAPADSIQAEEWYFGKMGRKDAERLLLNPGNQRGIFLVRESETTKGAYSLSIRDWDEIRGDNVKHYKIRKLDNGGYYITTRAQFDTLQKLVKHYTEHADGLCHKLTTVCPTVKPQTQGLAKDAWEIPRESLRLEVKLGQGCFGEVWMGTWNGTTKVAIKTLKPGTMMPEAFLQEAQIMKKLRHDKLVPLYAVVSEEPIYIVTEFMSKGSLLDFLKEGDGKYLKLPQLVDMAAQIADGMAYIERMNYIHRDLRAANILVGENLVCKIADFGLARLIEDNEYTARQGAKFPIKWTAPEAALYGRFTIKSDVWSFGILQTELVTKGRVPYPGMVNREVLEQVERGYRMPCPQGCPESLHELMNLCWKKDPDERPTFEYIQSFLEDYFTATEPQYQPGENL

| Compound | YES1 kinase inhibition at 1 nM (in words) ([1]; compound 1 nM) | inhibition at 0.001 µM ([1]; compound 1 nM) | inhibition at 0.01 µM [1] | GI50 [2] | IC50 [1] | inhibition at 0.1 µM [1] |
| --- | --- | --- | --- | --- | --- | --- |
| COc1cc(-c2cc(N[C@H]3CC[C@H](N(C)C)C3)n3ncnc(N)c23)ccc1NC(=O)OC(C)(C)C [Example 112, tert-butyl (4-(4-amino-7-(((1S,3S)-3-(dimethylamino)cyclopentyl)amino)pyrrolo[2,1-f][1,2,4]triazin-5-yl)-2-methoxyphenyl)carbamate] | could be inhibited even at a low concentration of 1 nM | 29% | 60% | 0.1 to 1 µM |  |  |
| COc1cc(-c2cc(N3CCC(CCN(C)C)CC3)n3ncnc(N)c23)ccc1NC(=O)OC(C)(C)C [Example 109, tert-butyl (4-(4-amino-7-(4-(2-(dimethylamino)ethyl)piperidin-1-yl)pyrrolo[2,1-f][1,2,4]triazin-5-yl)-2-methoxyphenyl)carbamate] |  | 37% | 51% | ≤ 0.1 µM | ≤ 0.1 µM |  |
| COc1cc(-c2cc(N3CCC(N)CC3)n3ncnc(N)c23)ccc1NC(=O)c1ccco1 [Example 137, N-(4-(4-amino-7-(4-aminopiperidin-1-yl)pyrrolo[2,1-f][1,2,4]triazin-5-yl)-2-methoxyphenyl)furan-2-carboxamide] |  |  |  | 0.1 to 1 µM | ≤ 0.1 µM |  |
| COc1cc(-c2cc(N3CCC4(CCCN4)CC3)n3ncnc(N)c23)ccc1NC(=O)OC(C)(C)C [Example 23, tert-butyl (4-(4-amino-7-(1,8-diazaspiro[4.5]decan-8-yl)pyrrolo[2,1-f][1,2,4]triazin-5-yl)-2-methoxyphenyl)carbamate] |  |  | 58% | ≤ 0.1 µM |  | 87% |
| COc1cc(-c2cc(N3CC(C)C(N)C(C)C3)n3ncnc(N)c23)ccc1NC(=O)OC(C)(C)C (centres unmarked) [Example 91, tert-butyl (4-(4-amino-7-(4-amino-3,5-dimethylpiperidin-1-yl)pyrrolo[2,1-f][1,2,4]triazin-5-yl)-2-methoxyphenyl)carbamate] |  |  | 21% | 0.1 to 1 µM |  | 59% |
| COc1cc(-c2cc(N3CCC4(CCNC4=O)CC3)n3ncnc(N)c23)ccc1NC(=O)OC(C)(C)C [Example 53, tert-butyl (4-(4-amino-7-(1-oxo-2,8-diazaspiro[4.5]decan-8-yl)pyrrolo[2,1-f][1,2,4]triazin-5-yl)-2-methoxyphenyl)carbamate] |  |  | 29% | ≤ 0.1 µM |  | 60% |
| COc1cc(-c2cc(N3CCC4(CC3)CN(C)C4)n3ncnc(N)c23)ccc1NC(=O)OC(C)(C)C [Example 21, tert-butyl (4-(4-amino-7-(2-methyl-2,7-diazaspiro[3.5]nonan-7-yl)pyrrolo[2,1-f][1,2,4]triazin-5-yl)-2-methoxyphenyl)carbamate] |  |  | 67% | 0.1 to 1 µM |  | 92% |
| COc1cc(-c2cc(N3CCC(CCN)CC3)n3ncnc(N)c23)ccc1NC(=O)OC(C)(C)C [Example 107, tert-butyl (4-(4-amino-7-(4-(2-aminoethyl)piperidin-1-yl)pyrrolo[2,1-f][1,2,4]triazin-5-yl)-2-methoxyphenyl)carbamate] |  | 38% | 52% | 0.1 to 1 µM | ≤ 0.1 µM |  |
| COCCN1CCN(c2cc(-c3ccc(NC(=O)OC(C)(C)C)c(OC)c3)c3c(N)ncnn23)CC1 [Example 29, tert-butyl (4-(4-amino-7-(4-(2-methoxyethyl)piperazin-1-yl)pyrrolo[2,1-f][1,2,4]triazin-5-yl)-2-methoxyphenyl)carbamate] |  |  | 28% | > 10 µM |  | 47% |
| COc1cc(-c2cc(N3CCC[C@@H](CN(C)C)C3)n3ncnc(N)c23)ccc1NC(=O)OC(C)(C)C [Example 40, tert-butyl (S)-(4-(4-amino-7-(3-((dimethylamino)methyl)piperidin-1-yl)pyrrolo[2,1-f][1,2,4]triazin-5-yl)-2-methoxyphenyl)carbamate] |  |  | 5% | 1 to 10 µM |  | 43% |
| COc1cc(-c2cc(N3C[C@@H]4[C@H](C3)[C@H]4N(C)C)n3ncnc(N)c23)ccc1NC(=O)OC(C)(C)C [Example 42, tert-butyl (4-(4-amino-7-((1R,5S,6s)-6-(dimethylamino)-3-azabicyclo[3.1.0]hexan-3-yl)pyrrolo[2,1-f][1,2,4]triazin-5-yl)-2-methoxyphenyl)carbamate] |  |  | 63% | ≤ 0.1 µM |  | 90% |
| COc1cc(-c2cc(N3CC[C@@H](N(C)C)[C@@H](F)C3)n3ncnc(N)c23)ccc1NC(=O)OC(C)(C)C [Example 30, tert-butyl (4-(4-amino-7-((3S,4R)-4-(dimethylamino)-3-fluoropiperidin-1-yl)pyrrolo[2,1-f][1,2,4]triazin-5-yl)-2-methoxyphenyl)carbamate] |  |  | 73% | ≤ 0.1 µM |  | 94% |
| COc1cc(-c2cc(CCN3CCC(N)CC3)n3ncnc(N)c23)ccc1NC(=O)OC(C)(C)C [Example 100, tert-butyl (4-(4-amino-7-(2-(4-aminopiperidin-1-yl)ethyl)pyrrolo[2,1-f][1,2,4]triazin-5-yl)-2-methoxyphenyl)carbamate] |  |  | 70% | ≤ 0.1 µM |  | 88% |
| CNC1CCN(c2cc(-c3ccc(NC(=O)OC(C)(C)C)c(OC)c3)c3c(N)ncnn23)CC1 [Example 44, tert-butyl (4-(4-amino-7-(4-(methylamino)piperidin-1-yl)pyrrolo[2,1-f][1,2,4]triazin-5-yl)-2-methoxyphenyl)carbamate] |  |  | 80% | ≤ 0.1 µM | ≤ 0.1 µM | 96% |
| COc1cc(-c2c(F)c(N3CCC(N)CC3)n3ncnc(N)c23)ccc1NC(=O)OC(C)(C)C [Example 127, tert-butyl (4-(4-amino-7-(4-aminopiperidin-1-yl)-6-fluoropyrrolo[2,1-f][1,2,4]triazin-5-yl)-2-methoxyphenyl)carbamate] |  |  | 67% | ≤ 0.1 µM | ≤ 0.1 µM | 88% |
| COc1cc(-c2cc(N3CCN(CCN(C)C)CC3)n3ncnc(N)c23)ccc1NC(=O)OC(C)(C)C [Example 28, tert-butyl (4-(4-amino-7-(4-(2-(dimethylamino)ethyl)piperazin-1-yl)pyrrolo[2,1-f][1,2,4]triazin-5-yl)-2-methoxyphenyl)carbamate] |  |  | 41% | 1 to 10 µM |  | 85% |
| COc1cc(-c2cc(N3CC[C@H](N(C)C)C3)n3ncnc(N)c23)ccc1NC(=O)OC(C)(C)C [Example 11, tert-butyl (S)-(4-(4-amino-7-(3-(dimethylamino)pyrrolidin-1-yl)pyrrolo[2,1-f][1,2,4]triazin-5-yl)-2-methoxyphenyl)carbamate] |  |  | 21% | 0.1 to 1 µM |  | 44% |
| COc1cc(-c2cc(-c3ccc4c(c3)OCC(=O)N4C)n3ncnc(N)c23)ccc1NC(=O)OC(C)(C)C [Example 8, tert-butyl (4-(4-amino-7-(4-methyl-3-oxo-3,4-dihydro-2H-benzo[b][1,4]oxazin-7-yl)pyrrolo[2,1-f][1,2,4]triazin-5-yl)-2-methoxyphenyl)carbamate] |  |  | 33% | > 10 µM |  | 64% |
| COc1cc(-c2cc(N3CCC(N)C(C)(C)C3)n3ncnc(N)c23)ccc1NC(=O)OC(C)(C)C (centres unmarked) [Example 94, tert-butyl (4-(4-amino-7-(4-amino-3,3-dimethylpiperidin-1-yl)pyrrolo[2,1-f][1,2,4]triazin-5-yl)-2-methoxyphenyl)carbamate] |  |  | 41% | ≤ 0.1 µM | ≤ 0.1 µM | 78% |
| COc1cc(-c2cc(N3CC4CC(C3)C4N)n3ncnc(N)c23)ccc1NC(=O)OC(C)(C)C (centres unmarked) [Example 93, tert-butyl (4-(4-amino-7-(6-amino-3-azabicyclo[3.1.1]heptan-3-yl)pyrrolo[2,1-f][1,2,4]triazin-5-yl)-2-methoxyphenyl)carbamate] |  |  | 14% | 0.1 to 1 µM |  | 48% |
| COc1cc(-c2cc(N3CCC(C(C)(C)N)CC3)n3ncnc(N)c23)ccc1NC(=O)OC(C)(C)C [Example 106, tert-butyl (4-(4-amino-7-(4-(2-aminopropan-2-yl)piperidin-1-yl)pyrrolo[2,1-f][1,2,4]triazin-5-yl)-2-methoxyphenyl)carbamate] |  | 37% | 43% | ≤ 0.1 µM |  |  |
| COc1cc(-c2cc(N3CCC4NCCC4C3)n3ncnc(N)c23)ccc1NC(=O)OC(C)(C)C (centres unmarked) [Example 25, tert-butyl (4-(4-amino-7-(octahydro-5H-pyrrolo[3,2-c]pyridin-5-yl)pyrrolo[2,1-f][1,2,4]triazin-5-yl)-2-methoxyphenyl)carbamate] |  |  | 28% | 0.1 to 1 µM |  | 76% |
| COc1cc(-c2cc(N3CCC(N(C)C)CC3)n3ncnc(N)c23)ccc1NC(=O)OC(C)(C)C [Example 15, tert-butyl (4-(4-amino-7-(4-(dimethylamino)piperidin-1-yl)pyrrolo[2,1-f][1,2,4]triazin-5-yl)-2-methoxyphenyl)carbamate] |  |  | 67% | ≤ 0.1 µM |  | 88% |
